Data published in ChEMBL document CHEMBL3885881, “DrugMatrix”.

Species: Rattus norvegicus
Assay: DrugMatrix - Regimen: Daily Repeat
Assay type: toxicity, organism-based, Sprague-Dawley
Parameters: regimen Daily Repeat, gender Male, age 6-8 weeks
Details: in vivo, iv, vehicle 100 % SALINE; for ABSOLUTE BASOPHIL / ABSOLUTE EOSINOPHIL / ABSOLUTE LYMPHOCYTE / ABSOLUTE MONOCYTE / ABSOLUTE SEGMENTED NEUTROPHIL / BASOPHIL / EOSINOPHIL / ERYTHROCYTE COUNT / HEMATOCRIT / HEMOGLOBIN / LEUKOCYTE COUNT / LYMPHOCYTE / MEAN CORPUSCULAR HEMOGLOBIN / MEAN CORPUSCULAR HEMOGLOBIN CONCENTRATION / MEAN CORPUSCULAR VOLUME / MONOCYTE / NEUTROPHIL / NUCLEATED RED BLOOD CELLS / PLATELET COUNT: tissue Blood; for ALANINE AMINOTRANSFERASE / ALBUMIN / ALKALINE PHOSPHATASE / ASPARTATE AMINOTRANSFERASE / BLOOD UREA NITROGEN / CARBON DIOXIDE / CHLORIDE / CHOLESTEROL / CREATINE PHOSPHOKINASE / CREATININE / GLUCOSE / LACTATE DEHYDROGENASE / LIPASE / PHOSPHORUS / POTASSIUM / SODIUM / TOTAL BILIRUBIN / TOTAL PROTEIN / URIC ACID: tissue Plasma
[1] = 10 mg/kg, 120 h, dose level Low, time 5 day
[2] = 350 mg/kg, 72 h, dose level High, time 3 day
[3] = 350 mg/kg, 120 h, dose level High, time 5 day

Which results are given for `O=C(O)P(=O)(O)O` [FOSCARNET]?
ABSOLUTE BASOPHIL [1]: 0 CELLS/uL; ABSOLUTE EOSINOPHIL [1]: 341 CELLS/uL; ABSOLUTE LYMPHOCYTE [1]: 13776.67 CELLS/uL; ABSOLUTE MONOCYTE [1]: 353.33 CELLS/uL; ABSOLUTE SEGMENTED NEUTROPHIL [1]: 929 CELLS/uL; BASOPHIL [1]: 0%; EOSINOPHIL [1]: 2%; ERYTHROCYTE COUNT [1]: 5.8 x10E6/uL; HEMATOCRIT [1]: 36.87%; HEMOGLOBIN [1]: 13.6 G/DL; LEUKOCYTE COUNT [1]: 15.4 x10E3/uL; LYMPHOCYTE [1]: 89.67%; MEAN CORPUSCULAR HEMOGLOBIN [1]: 23.47 pg; MEAN CORPUSCULAR HEMOGLOBIN CONCENTRATION [1]: 36.93 G/DL; MEAN CORPUSCULAR VOLUME [1]: 63.6 fL; MONOCYTE [1]: 2.33%; NEUTROPHIL [1]: 6%; NUCLEATED RED BLOOD CELLS [1]: 0 /100WBC; PLATELET COUNT [1]: 1343 x10E3/uL; ALANINE AMINOTRANSFERASE [1]: 47.67 u/L; ALBUMIN [1]: 4.3 G/DL; ALKALINE PHOSPHATASE [1]: 297.67 u/L; ASPARTATE AMINOTRANSFERASE [1]: 89 u/L; BLOOD UREA NITROGEN [1]: 17.67 mg/dL; CARBON DIOXIDE [1]: 23.67 mmol/L; CHLORIDE [1]: 105 MEQ/L; CHOLESTEROL [1]: 61.33 mg/dL; CREATINE PHOSPHOKINASE [1]: 1049.33 u/L; CREATININE [1]: 0.22 mg/dL; GLUCOSE [1]: 193.67 mg/dL; LACTATE DEHYDROGENASE [1]: 149 u/L; LIPASE [1]: 8 u/L; PHOSPHORUS [1]: 11.77 mg/dL; POTASSIUM [1]: 5.32 MEQ/L; SODIUM [1]: 145.43 MEQ/L; TOTAL BILIRUBIN [1]: 0.23 mg/dL; TOTAL PROTEIN [1]: 5.93 G/DL; URIC ACID [1]: 1.67 mg/dL; ABSOLUTE BASOPHIL [2]: 0 CELLS/uL; ABSOLUTE EOSINOPHIL [2]: 0 CELLS/uL; ABSOLUTE LYMPHOCYTE [2]: 12652 CELLS/uL; ABSOLUTE MONOCYTE [2]: 325.67 CELLS/uL; ABSOLUTE SEGMENTED NEUTROPHIL [2]: 1422.33 CELLS/uL; BASOPHIL [2]: 0%; EOSINOPHIL [2]: 0%; ERYTHROCYTE COUNT [2]: 5.36 x10E6/uL; HEMATOCRIT [2]: 33.47%; HEMOGLOBIN [2]: 12.6 G/DL; LEUKOCYTE COUNT [2]: 14.4 x10E3/uL; LYMPHOCYTE [2]: 88%; MEAN CORPUSCULAR HEMOGLOBIN [2]: 23.57 pg; MEAN CORPUSCULAR HEMOGLOBIN CONCENTRATION [2]: 37.67 G/DL; MEAN CORPUSCULAR VOLUME [2]: 62.47 fL; MONOCYTE [2]: 2.33%; NEUTROPHIL [2]: 9.67%; NUCLEATED RED BLOOD CELLS [2]: 0 /100WBC; PLATELET COUNT [2]: 1373.67 x10E3/uL; ALANINE AMINOTRANSFERASE [2]: 45 u/L; ALBUMIN [2]: 4.13 G/DL; ALKALINE PHOSPHATASE [2]: 377 u/L; ASPARTATE AMINOTRANSFERASE [2]: 95.33 u/L; BLOOD UREA NITROGEN [2]: 15.67 mg/dL; CARBON DIOXIDE [2]: 26 mmol/L; CHLORIDE [2]: 102.67 MEQ/L; CHOLESTEROL [2]: 71 mg/dL; CREATINE PHOSPHOKINASE [2]: 483.67 u/L; CREATININE [2]: 0.18 mg/dL; GLUCOSE [2]: 145.33 mg/dL; LACTATE DEHYDROGENASE [2]: 795 u/L; LIPASE [2]: 8.33 u/L; PHOSPHORUS [2]: 9.37 mg/dL; POTASSIUM [2]: 6.24 MEQ/L; SODIUM [2]: 142.23 MEQ/L; TOTAL BILIRUBIN [2]: 0.2 mg/dL; TOTAL PROTEIN [2]: 5.57 G/DL; URIC ACID [2]: 1.27 mg/dL; ABSOLUTE BASOPHIL [3]: 0 CELLS/uL; ABSOLUTE EOSINOPHIL [3]: 0 CELLS/uL; ABSOLUTE LYMPHOCYTE [3]: 12914 CELLS/uL; ABSOLUTE MONOCYTE [3]: 384.67 CELLS/uL; ABSOLUTE SEGMENTED NEUTROPHIL [3]: 1034.67 CELLS/uL; BASOPHIL [3]: 0%; EOSINOPHIL [3]: 0%; ERYTHROCYTE COUNT [3]: 5.17 x10E6/uL; HEMATOCRIT [3]: 33.93%; HEMOGLOBIN [3]: 13.03 G/DL; LEUKOCYTE COUNT [3]: 14.33 x10E3/uL; LYMPHOCYTE [3]: 90.33%; MEAN CORPUSCULAR HEMOGLOBIN [3]: 25.2 pg; MEAN CORPUSCULAR HEMOGLOBIN CONCENTRATION [3]: 38.4 G/DL; MEAN CORPUSCULAR VOLUME [3]: 65.67 fL; MONOCYTE [3]: 2.67%; NEUTROPHIL [3]: 7%; NUCLEATED RED BLOOD CELLS [3]: 0 /100WBC; PLATELET COUNT [3]: 1324.67 x10E3/uL; ALANINE AMINOTRANSFERASE [3]: 45 u/L; ALBUMIN [3]: 4.13 G/DL; ALKALINE PHOSPHATASE [3]: 385.67 u/L; ASPARTATE AMINOTRANSFERASE [3]: 74.67 u/L; BLOOD UREA NITROGEN [3]: 19 mg/dL; CARBON DIOXIDE [3]: 28.67 mmol/L; CHLORIDE [3]: 103.67 MEQ/L; CHOLESTEROL [3]: 69.33 mg/dL; CREATINE PHOSPHOKINASE [3]: 209.67 u/L; CREATININE [3]: 0.22 mg/dL; GLUCOSE [3]: 170 mg/dL; LACTATE DEHYDROGENASE [3]: 103.33 u/L; LIPASE [3]: 9 u/L; PHOSPHORUS [3]: 10.83 mg/dL; POTASSIUM [3]: 6.68 MEQ/L; SODIUM [3]: 143.67 MEQ/L; TOTAL BILIRUBIN [3]: 0.23 mg/dL; TOTAL PROTEIN [3]: 5.9 G/DL; URIC ACID [3]: 1.53 mg/dL
